The values below come from patent publication US8404859B2, “Thiazole and thiophene compounds” (Hoffmann-La Roche Inc., priority 2011, dated 2013).

For one experiment, the target named is sLFA-1/ICAM-1 (Homo sapiens, UniProt P05107+P20701, DEL701-769). In words: sLFA-1/ICAM-1 ELISA. As to conditions: sLFA-1 coated plates, 5dICAM-Fc binding, read-out: LFA/ICAM (IC50). As for the experimental part: (§1) sLFA-1/ICAM-1 ELISA and Mac-1/ICAM-1 ELISA
(§2) Plates were coated with either 50 μl/well of 2.0 ug/ml solution of sLFA-1 or Mac-1 receptor in divalent cation buffer (1 mM MnCI2, 0.14M NaCl, 20 mM HEPES pH 7.2) at 4° C. overnight. Two hundred fifty μl of blocking buffer (1% BSA in divalent cation buffer) was added to each well 1 hour at 37° C. Plates were washed 3 times with wash buffer (TBS/0.05% Tween-20/1 mM MnCl2). The compound to be tested was solubilized in DMSO. A series of 1:3 dilutions were performed to achieve a concentration range of 0.45 nM-3 uM. Fifty μl of binding buffer (0.5% BSA in divalent cation buffer)/1% DMSO and 50 μl of the solutions to be tested were added to the appropriate wells and incubated for 1 hour. Fifty μl of 5dICAM-Fc (27 ng/ml) was added to the appropriate wells and 50 μl binding buffer was added to non-specific binding wells and incubated for 2 hours and washed. One hundred μl of 1:4000 HRP-goat anti-huIgG was added to each well and incubated for 1 hour and washed. One hundred μl of 1:1 TMB solution was added to each well and developed for 20 min at room temperature. Color development was stopped by adding 100 μl H3PO4 to each well. Absorbance was measured at 450 nm.

In a further experiment the target is Mac-1/ICAM-1 (Homo sapiens, UniProt P05107+P11215). The experiment can be described thus: Mac-1/ICAM-1 ELISA. As to conditions: Mac-1 receptor coated plates, 5dICAM-Fc binding. The protocol:
as §1, §2

Mac-1/ICAM-1, sequence (P05107 23-769, other chains not shown): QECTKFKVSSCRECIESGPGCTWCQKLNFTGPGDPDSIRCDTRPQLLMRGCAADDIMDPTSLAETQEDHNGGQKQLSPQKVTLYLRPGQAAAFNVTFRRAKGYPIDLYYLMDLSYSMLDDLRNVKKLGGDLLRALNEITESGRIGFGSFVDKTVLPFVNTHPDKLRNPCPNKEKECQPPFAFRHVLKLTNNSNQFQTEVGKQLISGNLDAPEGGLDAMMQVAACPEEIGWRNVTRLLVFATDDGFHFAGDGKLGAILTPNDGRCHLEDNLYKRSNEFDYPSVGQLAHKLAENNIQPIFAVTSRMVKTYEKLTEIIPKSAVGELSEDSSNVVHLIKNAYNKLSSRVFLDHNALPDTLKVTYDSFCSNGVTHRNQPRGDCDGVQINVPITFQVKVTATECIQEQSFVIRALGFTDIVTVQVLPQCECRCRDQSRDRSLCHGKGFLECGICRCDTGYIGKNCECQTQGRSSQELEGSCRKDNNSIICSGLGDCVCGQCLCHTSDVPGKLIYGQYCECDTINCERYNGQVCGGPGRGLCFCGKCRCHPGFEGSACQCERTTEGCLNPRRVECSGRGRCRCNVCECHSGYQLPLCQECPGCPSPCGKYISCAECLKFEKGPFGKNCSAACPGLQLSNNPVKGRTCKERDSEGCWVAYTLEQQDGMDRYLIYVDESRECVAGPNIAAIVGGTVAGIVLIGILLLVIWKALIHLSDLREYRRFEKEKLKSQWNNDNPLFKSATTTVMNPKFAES
sLFA-1/ICAM-1, sequence (P20701 26-1090 limits assumed, stated change not applied): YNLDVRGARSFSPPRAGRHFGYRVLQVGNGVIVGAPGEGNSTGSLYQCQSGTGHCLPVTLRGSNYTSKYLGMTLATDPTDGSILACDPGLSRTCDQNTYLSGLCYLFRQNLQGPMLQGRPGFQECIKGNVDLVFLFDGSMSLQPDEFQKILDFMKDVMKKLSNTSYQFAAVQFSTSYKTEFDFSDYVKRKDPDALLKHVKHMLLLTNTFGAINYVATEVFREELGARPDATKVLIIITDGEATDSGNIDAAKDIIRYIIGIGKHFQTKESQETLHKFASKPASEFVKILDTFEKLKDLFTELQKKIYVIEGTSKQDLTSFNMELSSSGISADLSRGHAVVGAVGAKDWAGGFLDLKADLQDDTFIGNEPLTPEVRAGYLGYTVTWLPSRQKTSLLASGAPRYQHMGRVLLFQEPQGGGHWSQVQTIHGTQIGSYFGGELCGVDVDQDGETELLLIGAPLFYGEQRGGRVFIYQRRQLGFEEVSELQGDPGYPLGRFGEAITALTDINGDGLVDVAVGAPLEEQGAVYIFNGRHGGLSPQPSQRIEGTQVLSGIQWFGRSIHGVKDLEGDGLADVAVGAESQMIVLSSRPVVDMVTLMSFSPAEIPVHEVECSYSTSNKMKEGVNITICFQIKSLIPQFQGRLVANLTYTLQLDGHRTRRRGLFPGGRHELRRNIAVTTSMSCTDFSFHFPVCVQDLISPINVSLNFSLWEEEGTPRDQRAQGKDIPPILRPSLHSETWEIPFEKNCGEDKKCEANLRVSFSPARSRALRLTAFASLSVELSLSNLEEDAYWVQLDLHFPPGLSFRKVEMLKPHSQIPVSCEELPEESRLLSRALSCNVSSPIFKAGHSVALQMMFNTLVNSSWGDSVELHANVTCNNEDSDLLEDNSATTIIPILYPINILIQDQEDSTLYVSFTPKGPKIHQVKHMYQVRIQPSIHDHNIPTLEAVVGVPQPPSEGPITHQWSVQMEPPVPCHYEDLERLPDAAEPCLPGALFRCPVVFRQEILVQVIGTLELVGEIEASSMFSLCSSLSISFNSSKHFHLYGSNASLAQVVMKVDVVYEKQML
sLFA-1/ICAM-1, sequence (P05107 23-700 limits assumed, stated change not applied): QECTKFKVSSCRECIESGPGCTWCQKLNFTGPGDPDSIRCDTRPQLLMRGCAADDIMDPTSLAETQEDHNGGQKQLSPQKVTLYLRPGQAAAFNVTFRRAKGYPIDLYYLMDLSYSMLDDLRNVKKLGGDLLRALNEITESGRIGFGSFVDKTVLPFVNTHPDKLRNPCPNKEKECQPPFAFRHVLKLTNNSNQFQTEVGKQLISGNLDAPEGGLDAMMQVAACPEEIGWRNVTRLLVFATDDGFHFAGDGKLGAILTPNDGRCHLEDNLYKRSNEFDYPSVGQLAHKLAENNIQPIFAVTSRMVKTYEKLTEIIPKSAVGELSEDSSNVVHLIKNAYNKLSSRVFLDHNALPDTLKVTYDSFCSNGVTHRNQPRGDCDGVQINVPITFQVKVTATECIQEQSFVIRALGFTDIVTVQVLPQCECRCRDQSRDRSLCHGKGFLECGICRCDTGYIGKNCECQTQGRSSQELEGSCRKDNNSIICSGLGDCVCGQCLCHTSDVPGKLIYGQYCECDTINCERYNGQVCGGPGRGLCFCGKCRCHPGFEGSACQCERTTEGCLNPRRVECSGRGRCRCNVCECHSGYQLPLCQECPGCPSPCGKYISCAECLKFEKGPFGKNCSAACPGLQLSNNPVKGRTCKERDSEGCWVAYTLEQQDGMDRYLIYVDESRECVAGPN

On to `Cc1cc(C(=O)NCCc2cccc(O)c2)sc1C(=O)N[C@@H](CNC(=O)c1cc(O)cc(O)c1)C(=O)O` [Example 49, (S)-3-(3,5-dihydroxy-benzoylamino)-2-([5-[2-(3-hydroxy-phenyl)-ethyl-carbamoyl]-3-methyl-thiophen-2-carbonyl]-amino)-propionic acid], for which the IC50 is 18 nM at sLFA-1/ICAM-1 and 207 nM on Mac-1/ICAM-1.

For the molecule `O=C(NC[C@H](NC(=O)c1sc(C(=O)NCc2cccc3[nH]ccc23)cc1C(F)(F)F)C(=O)O)c1cccs1` [Example 50, (S)-2-({5-[(1H-Indol-4-ylmethyl)-carbamoyl]-3-trifluoromethyl-thiophene-2-carbonyl}-amino)-3-[(thiophene-2-carbonyl)-amino]-propionic acid], the IC50 on sLFA-1/ICAM-1 was 344 nM; on Mac-1/ICAM-1, more than 3000 nM.

On to `O=C1Cc2c(CNC(=O)c3cc(C(F)(F)F)c(C(=O)N[C@@H](CNC(=O)c4cccs4)C(=O)O)s3)cccc2N1` [Example 51, (S)-2-({5-[(2-oxo-2,3-dihydro-1H-indol-4-ylmethyl)-carbamoyl]-3-trifluoromethyl-thiophene-2-carbonyl}-amino)-3-[(thiophene-2-carbonyl)-amino]-propionic acid], for which the IC50 at sLFA-1/ICAM-1 is 164 nM; on Mac-1/ICAM-1, more than 3000 nM.

Take `O=C(NC[C@H](NC(=O)c1sc(C(=O)NCc2cccc(O)c2)cc1C(F)(F)F)C(=O)O)c1cccs1` [Example 52, (S)-2-{[5-(3-Hydroxy-benzylcarbamoyl)-3-trifluoromethyl-thiophene-2-carbonyl]-amino}-3-[(thiophene-2-carbonyl)-amino]-propionic acid]: the IC50 turned out to be 31 nM on sLFA-1/ICAM-1 and 115 nM at Mac-1/ICAM-1.

On to `O=C(NC[C@H](NC(=O)c1sc(C(=O)NCc2cccc(O)c2)cc1Cl)C(=O)O)c1cccs1` [Example 54, (S)-2-{[3-Chloro-5-(3-hydroxy-benzylcarbamoyl)-thiophene-2-carbonyl]-amino}-3-[(thiophene-2-carbonyl)-amino]-propionic acid], for which the values for the IC50 at sLFA-1/ICAM-1 and on Mac-1/ICAM-1 were 7 nM and 62 nM, respectively.

As to `O=C(NC[C@H](NC(=O)c1sc(C(=O)NCc2cccc3[nH]ncc23)cc1Cl)C(=O)O)c1cccs1` [Example 56, (S)-2-({3-Chloro-5-[(1H-indazol-4-ylmethyl)-carbamoyl]-thiophene-2-carbonyl}-amino)-3-[(thiophene-2-carbonyl)-amino]-propionic acid], the values for the IC50 on sLFA-1/ICAM-1 and on Mac-1/ICAM-1 were 29 nM and 20 nM, respectively.

As to `O=C(NC[C@H](NC(=O)c1sc(C(=O)NCc2cccc3[nH]ncc23)cc1C(F)(F)F)C(=O)O)c1cccs1` [Example 58, (S)-2-({5-[(1H-Indazol-4-ylmethyl)-carbamoyl]-3-trifluoromethyl-thiophene-2-carbonyl}-amino)-3-[(thiophene-2-carbonyl)-amino]-propionic acid], the IC50 at sLFA-1/ICAM-1 is 41 nM; at Mac-1/ICAM-1, 55 nM.

Consider `CC(C)c1cc(C(=O)NCc2cccc(O)c2)sc1C(=O)N[C@@H](CNC(=O)c1cccs1)C(=O)O` [Example 59, (S)-2-{[5-(3-Hydroxy-benzylcarbamoyl)-3-isopropyl-thiophene-2-carbonyl]-amino}-3-[(thiophene-2-carbonyl)-amino]-propionic acid], for which the IC50 on sLFA-1/ICAM-1 is 29 nM; at Mac-1/ICAM-1, 46 nM.

As for `CC(C)c1cc(C(=O)NCc2cccc3[nH]ncc23)sc1C(=O)N[C@@H](CNC(=O)c1cccs1)C(=O)O` [Example 60, (S)-2-([5-[(1H-Indazol-4-ylmethyl)-carbamoyl]-3-isopropyl-thiophene-2-carbonyl]-amino)-3-[(thiophene-2-carbonyl)-amino]-propionic acid], the IC50 was determined as 49 nM on sLFA-1/ICAM-1 and 17 nM on Mac-1/ICAM-1.

For the molecule `CCc1cc(C(=O)NCc2cccc(O)c2)sc1C(=O)N[C@@H](CNC(=O)c1cccs1)C(=O)O` [Example 61, (S)-2-{[3-Ethyl-5-(3-hydroxy-benzylcarbamoyl)-thiophene-2-carbonyl]-amino}-3-[(thiophene-2-carbonyl)-amino]-propionic acid], the IC50 at sLFA-1/ICAM-1 came to 16 nM; at Mac-1/ICAM-1, 31 nM.

On to `CCc1cc(C(=O)NCc2cccc3[nH]ncc23)sc1C(=O)N[C@@H](CNC(=O)c1cccs1)C(=O)O` [Example 62, (S)-2-({3-Ethyl-5-[(1H-indazol-4-ylmethyl)-carbamoyl]-thiophene-2-carbonyl}-amino)-3-[(thiophene-2-carbonyl)-amino]-propionic acid], for which the IC50 on sLFA-1/ICAM-1 is 21 nM; at Mac-1/ICAM-1 it was 25 nM.

Turning to `O=C(NC[C@H](NC(=O)c1sc(C(=O)NCc2cccc(O)c2)cc1Br)C(=O)O)c1cccs1` [Example 63, (S)-2-{[3-Bromo-5-(3-hydroxy-benzylcarbamoyl)-thiophene-2-carbonyl]-amino}-3-[(thiophene-2-carbonyl)-amino]-propionic acid], the IC50 was determined as 7 nM on sLFA-1/ICAM-1 and 25 nM on Mac-1/ICAM-1.

As to `Cc1cc(C(=O)NCc2ccc(F)c(O)c2)sc1C(=O)N[C@@H](CNC(=O)c1cccs1)C(=O)O` [Example 64, (S)-2-{[5-(4-Fluoro-3-hydroxy-benzylcarbamoyl)-3-methyl-thiophene-2-carbonyl]-amino}-3-[(thiophene-2-carbonyl)-amino]-propionic acid], the figures for the IC50 on sLFA-1/ICAM-1 and at Mac-1/ICAM-1 were 11 nM and more than 3000 nM, respectively.
